{"source": "patent US8329639B2", "about": "“MUC1 based glycolipopeptide vaccine with adjuvant” (priority 2011, dated 2012)", "key": {"B16-MUC1 tumor cells": {"test_system": "B16-MUC1 tumor cells", "assay": "Tumor growth, B16-MUC1 model", "type": "in vivo, C57B1/6 mice", "settings": "50 μg Liposomal PET Lipid A, value stated jointly with saline group", "experimental": "(§1) C57B1/6 mice were treated using a bi-weekly schedule with saline vehicle, 50 μg Liposomal PET Lipid A or 5 μg of liposomal vaccine formulation of Example 1 starting on day −42. On Day 0, mice were challenged with either 2×10^6 B16-MUC1, 0.5×10^6 B16, or 2×10^6MC38-MUC1 tumor cells followed by two additional vaccinations on days +3 and +17. Tumor growth was recorded twice weekly.\nIn the B16-MUC1 model, animals treated with the Example 1 vaccine formulation had no tumors at Day 44. 9/12 animals were tumor free in the Example 1 vaccine formulation group at end of study. […] Mean tumor volume in these two groups was about 200 mm^3 by Day 10. By Day 24, mean tumor volume was about 1200 mm^3 for the saline and PET lipid A groups."}, "[1]": {"test_system": "MUC1 antigen having SEQ ID NO: 2", "assay": "Humoral response: serum IgG ELISA on plates coated with MUC1 antigen", "type": "in vivo, C57B1/6J mice", "settings": "vaccine 5, 25 and 100 μg/mouse; PET lipid A 50 μg; serially diluted sera", "experimental": "C57B1/6J mice were injected with a liposomal vaccine formulation of Example 1 in three different concentrations of vaccine (5, 25 and 100 μg). 50 μg dose of PET lipid A and saline were used as a negative control. Sera from the mice were isolated and subsequently serially diluted and incubated onto plates coated with MUC1 antigen having SEQ ID NO: 2. After incubation with sera, the plates were washed and a labeled anti-mouse IgG specific antibody was added. The antibody was washed off and the mouse IgG was measured via an ELISA reader."}, "MC38-MUC1 tumor cells": {"test_system": "MC38-MUC1 tumor cells", "assay": "Tumor growth, MC38-MUC1 model", "type": "in vivo, C57B1/6 mice", "settings": "vaccine 5 μg, Liposomal PET Lipid A 50 μg", "experimental": "as §1\nIn the MC38-MUC1 model, 3/12 animals were tumor free in the Example 1 vaccine formulation group at the end of the study. […] By Day 32, mean tumor volume was about 120 mm^3 for the Example 1 vaccine formulation group as compared to about 1200 mm^3 for the PET lipid A group and about 1700 mm^3 for the saline group."}}, "data": [{"substance": "pentaerythritol-6-chain-C14-glucosamine-mono-phosphate [PET lipid A]", "values": [{"measurement": "mean tumor volume by Day 10", "setting": "B16-MUC1 tumor cells", "value": "about 200 mm^3"}, {"measurement": "mean tumor volume by Day 24", "setting": "B16-MUC1 tumor cells", "value": "about 1200 mm^3"}, {"measurement": "antibody (IgG) response by ELISA", "setting": "[1]", "value": "no antibody response"}, {"measurement": "mean tumor volume by Day 32", "setting": "MC38-MUC1 tumor cells", "value": "about 1200 mm^3"}]}]}
